The values that follow come from patent US10703757B2, “Compounds and methods for CDK8 modulation and indications therefor” (Plexxikon Inc., priority 2016, dated 2020).

Experiment [1] deals with CDK8 (phosphorylation of STAT1 at serine 727 in A549 cells). The experiment in a line: Cell based Phospho-STAT1 assay (IFNγ-stimulated A549 cells, AlphaLISA). The conditions noted are these: Homo sapiens, A549, A549 cells, phospho-STAT1 after IFNγ stimulation. Put shortly: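 A549 cells given serial compound dilutions for 1 h at 37 °C, then stimulated with IFNγ at 10 ng/mL final for 30 min. Lysate STAT1 Ser727 phosphorylation measured by AlphaLISA; % inhibition vs stimulated/unstimulated DMSO controls, IC50 by nonlinear regression.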
In general terms: Alpha assays give light when donor and acceptor beads are brought close together.

The test system of experiment [2] is CDK8 (TCF/LEF luciferase reporter in HCT116 cells). The experiment in a line: Cell based TCF/LEF reporter assay (HCT116+TCF/LEF luciferase). The note with it: Homo sapiens, HCT-116, 24 h. Summed up: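 Luciferase readout was corrected for viability (CellTiter-Fluor) and scaled between DMSO high and 10 uM CCT251545 low controls, giving IC50 by nonlinear regression. Compounds, serially diluted, were incubated 24 h at 37 °C on HCT116 clones stably expressing a TCF/LEF-driven luciferase reporter.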
A general note: Reporter assays use an easily measured gene product as a stand-in for the process of interest.

In general, IC50 refers to the midpoint of a concentration-inhibition curve. For the compound `CC(C)(C#Cc1cccn2ncc(-c3ccc(-c4cnn(CC(F)(F)F)c4)cc3)c12)C(N)=O` [Compound P-0468, 2,2-dimethyl-4-(3-(4-(1-(2,2,2-trifluoroethyl)-1H-pyrazol-4-yl)phenyl)pyrazolo[1,5-a]pyridin-4-yl)but-3-ynamide], the IC50 in experiment [1] and in experiment [2] was 0.1 to 100 nM in each case.

With `COCCn1cc(-c2ccc(-c3cnn4cccc(C#CC(C)(C)C(N)=O)c34)cc2)cn1` [Compound P-0469, 4-(3-(4-(1-(2-methoxyethyl)-1H-pyrazol-4-yl)phenyl)pyrazolo[1,5-a]pyridin-4-yl)-2,2-dimethylbut-3-ynamide], the IC50 in experiment [1] and in experiment [2] was 0.1 to 100 nM throughout.

As for `CC(C)(C#Cc1cccn2ncc(-c3ccc(-c4cnn(CC5COC5)c4)cc3)c12)C(N)=O` [Compound P-0470, 2,2-dimethyl-4-(3-(4-(1-(oxetan-3-ylmethyl)-1H-pyrazol-4-yl)phenyl)pyrazolo[1,5-a]pyridin-4-yl)but-3-ynamid], the IC50 in experiment [1] and in experiment [2] was 0.1 to 100 nM each time.
